Earlier results in PMC6028563, “Probing Substituents in the 1- and 3-Position: Tetrahydropyrazino-Annelated Water-Soluble Xanthine Derivatives as Multi-Target Drugs With Potent Adenosine Receptor Antagonistic Activity” (Frontiers in Chemistry, 2018).

Tests used:
human A2A AR = biological target: T1, human A2A AR (Homo sapiens, UniProt P29274); settings: human (h); Figure 3 and introduction; ref Drabczynska et al., 2007; Koch et al., 2013; Brunschweiger et al., 2014, 2016; cited from earlier work
T1 construct: expressed in transfected cells; host or cells: CHO cells
T1 sequence (P29274 whole entry): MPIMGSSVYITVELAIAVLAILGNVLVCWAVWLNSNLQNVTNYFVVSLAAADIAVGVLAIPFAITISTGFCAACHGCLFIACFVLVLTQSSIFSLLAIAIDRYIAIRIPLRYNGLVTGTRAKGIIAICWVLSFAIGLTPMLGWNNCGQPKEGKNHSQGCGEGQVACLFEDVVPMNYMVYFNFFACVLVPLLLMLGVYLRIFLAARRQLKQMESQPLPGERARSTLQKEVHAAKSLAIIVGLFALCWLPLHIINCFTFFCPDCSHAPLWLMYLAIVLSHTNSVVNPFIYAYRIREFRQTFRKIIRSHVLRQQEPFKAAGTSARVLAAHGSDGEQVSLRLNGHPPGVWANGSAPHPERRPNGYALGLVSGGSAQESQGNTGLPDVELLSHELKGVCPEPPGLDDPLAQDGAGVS

human A1 AR = biological target: T2, human A1 AR (Homo sapiens, UniProt P30542); settings: human (h); Figure 3 and introduction; ref Drabczynska et al., 2007; Koch et al., 2013; Brunschweiger et al., 2014, 2016; read-out: A1 (Ki); cited from earlier work
T2 construct: expressed in transfected cells; host or cells: CHO cells
T2 sequence (P30542 1-326): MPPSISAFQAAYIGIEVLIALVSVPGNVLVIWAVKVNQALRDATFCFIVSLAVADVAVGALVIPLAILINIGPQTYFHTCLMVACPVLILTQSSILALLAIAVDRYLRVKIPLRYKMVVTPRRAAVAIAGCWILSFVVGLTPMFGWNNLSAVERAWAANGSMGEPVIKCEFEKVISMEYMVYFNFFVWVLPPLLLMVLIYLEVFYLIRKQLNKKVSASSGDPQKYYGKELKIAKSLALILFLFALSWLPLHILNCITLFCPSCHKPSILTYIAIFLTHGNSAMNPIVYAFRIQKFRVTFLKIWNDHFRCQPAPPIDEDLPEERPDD

recombinant human MAO-B = biological target: T3, recombinant human MAO-B (Homo sapiens, UniProt P27338); settings: human (h); Figure 2 and introduction; ref Chen et al., 2002; Pretorius et al., 2008; Wang et al., 2017; Stössel et al., 2013; cited from earlier work
T3 construct: purchased Sigma-Aldrich M7441; host or cells: baculovirus-infected insect cells
T3 sequence (P27338 1-520): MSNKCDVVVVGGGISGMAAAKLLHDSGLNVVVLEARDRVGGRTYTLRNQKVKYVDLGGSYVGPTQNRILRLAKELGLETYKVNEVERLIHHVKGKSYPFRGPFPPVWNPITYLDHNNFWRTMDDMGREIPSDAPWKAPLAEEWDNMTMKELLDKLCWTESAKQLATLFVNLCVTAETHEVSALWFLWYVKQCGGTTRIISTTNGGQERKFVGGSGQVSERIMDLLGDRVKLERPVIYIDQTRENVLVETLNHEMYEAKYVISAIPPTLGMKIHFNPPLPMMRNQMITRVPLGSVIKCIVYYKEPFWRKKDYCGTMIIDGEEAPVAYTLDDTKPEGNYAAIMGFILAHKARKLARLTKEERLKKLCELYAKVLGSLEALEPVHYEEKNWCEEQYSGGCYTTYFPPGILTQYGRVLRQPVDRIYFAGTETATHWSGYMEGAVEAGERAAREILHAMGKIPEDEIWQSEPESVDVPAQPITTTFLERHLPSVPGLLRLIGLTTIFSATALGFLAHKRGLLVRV

Compound | Ki (human A2A AR) [nM] | Ki (human A1 AR) [nM] | IC50 (recombinant human MAO-B) [nM]
1,3-Dimethyl-6,7,8,9-tetrahydropyrazino[2,1-f ]purine-2,4(1H,3H)-dione [Compound 10c] | 94 | 116 | 
Cn1c(=O)c2c(nc(/C=C/C=C/c3cccc(Br)c3)n2C)n(C)c1=O [Compound 4] |  |  | 37.9
Cn1c(=O)c2c(nc3n2CCCN3Cc2ccccc2)n(C)c1=O [Compound 9a] | 253 | 249 | 
